Measurements: patent US5808139A (Ligand Pharmaceuticals Incorporated, priority 1994, dated 1998)
Entries after “also recorded” stand apart in the source; their conditions may differ.

Legend:
[1] = Wall et al., J. Nat. Prod. 1989; cited from earlier work
[2] = molecular target: T1, human progesterone receptor (Homo sapiens, UniProt P06401); assay: Progesterone receptor binding (displacement of 3H-progesterone, whole cell extract of transfected CV-1 cells); parameters: expressed in transfected cells; host or cells: CV-1 cells (calcium phosphate transfection), whole cell extract
T1 sequence (P06401 1-933): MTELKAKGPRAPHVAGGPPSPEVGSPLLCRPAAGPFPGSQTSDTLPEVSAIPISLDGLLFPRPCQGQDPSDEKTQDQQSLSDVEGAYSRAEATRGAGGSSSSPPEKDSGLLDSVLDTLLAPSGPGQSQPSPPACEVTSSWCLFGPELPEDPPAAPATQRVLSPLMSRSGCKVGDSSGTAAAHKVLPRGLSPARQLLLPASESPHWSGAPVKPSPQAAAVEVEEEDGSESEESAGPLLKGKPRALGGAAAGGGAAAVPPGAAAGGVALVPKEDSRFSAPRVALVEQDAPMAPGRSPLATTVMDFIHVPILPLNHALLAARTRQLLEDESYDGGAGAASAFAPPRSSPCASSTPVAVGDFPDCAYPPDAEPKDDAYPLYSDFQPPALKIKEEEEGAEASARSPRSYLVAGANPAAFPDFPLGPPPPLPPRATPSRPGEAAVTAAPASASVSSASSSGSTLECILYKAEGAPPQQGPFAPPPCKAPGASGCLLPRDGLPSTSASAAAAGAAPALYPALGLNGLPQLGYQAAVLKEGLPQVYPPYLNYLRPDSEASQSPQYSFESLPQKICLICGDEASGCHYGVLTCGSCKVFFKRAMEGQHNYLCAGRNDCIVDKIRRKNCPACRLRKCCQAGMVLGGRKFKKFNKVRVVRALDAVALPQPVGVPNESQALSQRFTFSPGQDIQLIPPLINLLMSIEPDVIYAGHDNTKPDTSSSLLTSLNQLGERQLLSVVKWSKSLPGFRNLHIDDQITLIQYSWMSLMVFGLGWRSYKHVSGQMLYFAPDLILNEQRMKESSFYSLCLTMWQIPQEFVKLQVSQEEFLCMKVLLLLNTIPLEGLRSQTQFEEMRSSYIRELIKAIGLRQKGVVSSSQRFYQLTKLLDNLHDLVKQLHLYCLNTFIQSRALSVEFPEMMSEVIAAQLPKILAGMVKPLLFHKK

T47D cells = assay: Alkaline phosphatase activity in T47D cells (induction and its inhibition); type: cell-based, human; conditions: ligand alone; three days
Description: The functional activities of the cyclocymopol analogues in the human breast cell line, T47D, were also investigated. T47D cells have proven to be a particularly useful model to investigate the molecular actions of sex steroids because they contain endogenous functional receptors for, and respond to, progestins, and their respective antagonists. Moreover, these cells contain exceptionally high titers of progesterone receptors and are exquisitely sensitive to the actions of progestins in a manner quite similar to their actions in normal and neoplastic mammary epithelial cells. In T47D cells, progestins induce de novo synthesis of a plasma-associated alkaline phosphatase, which has been reported to be similar, if not identical, to the alkaline phosphatase present in the normal breast and human milk. These tests were conducted according to the following illustrative example. […] For routine induction of alkaline phosphatase, cells were treated for three days with two media changes and harvested as described below. […] Nuclei were sedimented at 2500 rpm, and the supernatant was saved as cytosol. The protein content of the cytosol was assayed by the method of Bradford. Alkaline phosphatase activity was determined by incubating one volume of cell extract with three volumes of 1 mg/ml p-nitrophenol phosphate prepared in DEAM (1M diethanolamine, pH=9, containing 2 mM magnesium chloride) at room temperature for 20 min. At the end of the incubation time, the reaction was stopped with an equal volume of 1N NaOH. Ten standards of p-nitrophenol were prepared in DEAM buffer and absorbance was read at 405 nm. Alkaline phosphatase activity is expressed as pmol p-nitrophenol formed/min/mg protein.

[3] = molecular target: T1, human progesterone receptor; assay: Co-transfection (cis-trans) assay in CV-1 cells, agonist and antagonist mode; type: cell-based; parameters: expressed in transfected cells; host or cells: CV-1 cells (calcium phosphate transfection), whole cell extract; conditions: antagonist mode with 10^-8 M progesterone
Description: This assay is described in further detail in U.S. Pat. Nos. 4,981,784 and 5,071,773, which are incorporated herein by reference. The co-transfection assay provides a method for identifying functional ligands (either agonists which mimic, or antagonists which inhibit, the effect of hormones) for ligand-responsive receptor proteins.
The co-transfection assay provides a mechanism to evaluate ability of a compound to function as an agonist or antagonist of the activity modulated by an intracellular receptor. The co-transfection assay mimics an in vivo system in the laboratory. In the co-transfection assay, a cloned gene for an intracellular receptor is introduced by transfection (a procedure to induce cells to take up foreign genes) into a background cell substantially devoid of endogenous intracellular receptors. This introduced gene directs the recipient cells to make the intracellular receptor protein. A second gene is also introduced (co-transfected) into the same cells in conjunction with the intracellular receptor gene. This second gene functions as a reporter for the transcription-modulating activity of the target intracellular receptor. The reporter acts as a surrogate for the products normally expressed by a gene under control of the target receptor and its natural hormone.
A preferred reporter gene is one which expresses the firefly enzyme luciferase. The co-transfection assay can detect small molecule agonists or antagonists of target intracellular receptors. Exposing the cells to an agonist ligand increases reporter activity in the transfected cells that can be conveniently measured, reflecting ligand-dependent, intracellular receptor-mediated increases in reporter transcription. To detect antagonists, the co-transfection assay is carried out in the presence of a constant concentration of an agonist known to induce a defined reporter signal. Increasing concentrations of a test antagonist will decrease the reporter signal. The co-transfection assay is therefore useful to detect both agonists and antagonists of specific intracellular receptors. It determines not only whether a compound interacts with a particular intracellular receptor, but also whether this interaction mimics (agonizes) or blocks (antagonizes) the effects of the natural regulatory molecules on target gene expression.
Co-transfected cells are exposed to a medium to which is added the potential ligand that is being evaluated. If the candidate ligand diffuses into the cell and binds to the receptor and the resulting complex functions as an agonist, it binds to the co-transfected reporter gene and initiates transcription. When that gene is one that expresses, for example, luciferase, luciferase is produced which catalyzes a light-emitting reaction with its substrate luciferin. Thus, after cell lysis and the introduction of luciferin, the amount of light produced relative to the concentration of candidate ligand used in the assay provides a measure of the potency and efficacy of the compound tested. Antagonist activity is evaluated by adding the candidate ligand and a known agonist to the co-transfected cells.
The receptor cDNA was introduced in a mammalian expression vector under the control of the Rous Sarcoma virus LTR. […] A reporter vector was also transfected, containing a firefly luciferase gene under the control of the hormone-responsive promoter. […] The level of luciferase activity was then measured in cell extracts. Light emission is directly proportional to the effectiveness of the hormone-receptor complex in activating gene expression.
A total of three replicates per concentration point were tested for each compound, and the EC50 was calculated for each positive response. Both agonist and antagonist activity for each test compound was determined in parallel.

[4] = tested on: human progesterone receptor altered at the Tau-1 location; assay: Co-transfection assay in CV-1 cells, progesterone receptor altered at Tau-1, antagonist activity; type: cell-based
In short: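 CV-1 cells co-transfected with RSV-LTR-driven human PR (altered at Tau-1) and a hormone-responsive luciferase reporter; antagonism measured against a fixed agonist concentration. Luciferase in cell extracts read, triplicate points, potency from concentration-response; […].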

| Compound | Antimutagen activity [1] | Kd [2] | Agonist activity, alkaline phosphatase induction (T47D cells) | Progesterone receptor agonist/antagonist activity [3] | Efficacy (% maximal response relative to RU-486), CV-1 cells ([4]; antagonist activity, relative to RU-486) | IC50 ([4]; concentration required to reduce the maximal response by 50%, read-out: Potency (IC50), CV-1 cells) |
| --- | --- | --- | --- | --- | --- | --- |
| 4-isocymobarbatol | highly active antimutagens |  |  |  |  |  |
| C=C1CC[C@@H](Br)C(C)(C)[C@H]1Cc1cc(OC)c(Br)cc1O [SO-54, (3S)-cyclocymopol monomethyl ether] |  | 0.325 µM | functional agonists; also recorded: increased the activity of intracellular alkaline phosphatase in a concentration-dependent manner | progesterone receptor agonist activity | < 20% | > 10 µM |
| CC1(C)[C@@H](Br)CC[C@@]2(C)Oc3cc(Br)c(O)cc3C[C@@H]12 [cymobarbatol] | highly active antimutagens |  |  |  |  |  |
